Source: patent US20220288231A1, “METHODS AND COMPOSITIONS FOR REDUCING GENE OR NUCLEIC ACID THERAPY-RELATED IMMUNE RESPONSES” (Generation Bio Co., priority 2019, published 2022)
“Also recorded” adds a separate entry of the source. Counter-ions that a name gives are not always drawn.

Experiments:
[1] = system: serum proinflammatory cytokines and chemokines in response to ceDNA; test: In vivo cytokine/chemokine panel after ceDNA (Construct A) dosing; set-up: species or system mice; settings: for serum IP-10 level: repeat experiment; for cytokines expression after ceDNA dosing: LNP: Construct A at 0.2 mg/Kg
Method: The immunosuppressant selected for initial in vivo cytokine/chemokine panel assays were afatinib, brigatinib, dacomitinib, dasatinib, saracatinib, fostamatinib, cerdulatinib, ruxolitinib, and cobimetinib. […] The high and low dose concentrations immunosuppressants are as follows: afatinib (H: 200 mg/kg/day; L: 25 mg/kg/day), brigatinib (H: 50 mg/kg/day; L: 10 mg/kg/day), dacomitinib (H: 30 mg/kg/day; L: 10 mg/kg/day), dasatinib (H: 30 mg/kg/day; L: 10 mg/kg/day), saracatinib (H: 50 mg/kg/day; L: 10 mg/kg/day), fostamatinib (H: 500 mg/kg/day; L: 100 mg/kg/day), cerdulatinib (H: 30 mg/kg/day; L: 5 mg/kg/day), ruxolitinib (H: 300 mg/kg/day; L: 60 mg/kg/day) and cobimetinib (H: 10 mg/kg/day; L: 3 mg/kg/day). Formulations were mixed by pipetting prior to administration to distribute particulates of oral gavage suspension. TKI or vehicle for Groups 3-24 were dosed on Days -2, -1, 0 and 1 by oral gavage at 10 mL/kg. TKI for Group 25 were dosed on Days -2, -1, 0 and 1 by oral gavage at 20 mL/kg. TKI for Group 26 was dosed on Days -2, -1, 0 and 1 by intraperitoneal (IP) administration at 20 mL/kg. […] Otherwise, TKIs were administered at approximately the same time each day ([…] dosed at 0.2 mg/kg on Day 0 for all experimental groups by intravenous administration via lateral tail vein. Animals were monitored continuously while under anesthesia, during recovery and until mobile. […] Polycytidylic acid potassium salt (PolyC) and […] (Construct A) were used as controls. […] Body weights for all animal were recorded.

[2] = system: IRF-inducible luciferase reporter in RAW-ISG cells; test: IFN reporter assay in RAW-ISG cells; format: cell-based, murine; settings: for inhibitory effects on murine ISG system / induction of IRF: 0.1 μM, 1.0 μM and 10 μM, ceDNA
Method: Finally, IFN reporter assays were conducted in RAW-ISG cells. RAW-ISG cells are generated from the murine macrophage cell line by stable integration of an interferon regulatory factor (IRF)-inducible luciferase reporter construct. […] Another potent TKI compound selected for this assay was BMS-986165 which is a known antagonist of TYK2.

[3] = system: THP1-ISG cells; test: THP1-ISG cell viability assay (ATP activity and LDH release); settings: 10 μM, 1.0 μM and 0.1 μM; 24 hours
[4] = In vivo tolerability and body weight with TKI and ceDNA; set-up: species or system mice
Method: The immunosuppressant selected for initial in vivo cytokine/chemokine panel assays were afatinib, brigatinib, dacomitinib, dasatinib, saracatinib, fostamatinib, cerdulatinib, ruxolitinib, and cobimetinib. […] The high and low dose concentrations immunosuppressants are as follows: afatinib (H: 200 mg/kg/day; L: 25 mg/kg/day), brigatinib (H: 50 mg/kg/day; L: 10 mg/kg/day), dacomitinib (H: 30 mg/kg/day; L: 10 mg/kg/day), dasatinib (H: 30 mg/kg/day; L: 10 mg/kg/day), saracatinib (H: 50 mg/kg/day; L: 10 mg/kg/day), fostamatinib (H: 500 mg/kg/day; L: 100 mg/kg/day), cerdulatinib (H: 30 mg/kg/day; L: 5 mg/kg/day), ruxolitinib (H: 300 mg/kg/day; L: 60 mg/kg/day) and cobimetinib (H: 10 mg/kg/day; L: 3 mg/kg/day). Formulations were mixed by pipetting prior to administration to distribute particulates of oral gavage suspension. TKI or vehicle for Groups 3-24 were dosed on Days -2, -1, 0 and 1 by oral gavage at 10 mL/kg. TKI for Group 25 were dosed on Days -2, -1, 0 and 1 by oral gavage at 20 mL/kg. TKI for Group 26 was dosed on Days -2, -1, 0 and 1 by intraperitoneal (IP) administration at 20 mL/kg. […] Otherwise, TKIs were administered at approximately the same time each day ([…] dosed at 0.2 mg/kg on Day 0 for all experimental groups by intravenous administration via lateral tail vein. […] Polycytidylic acid potassium salt (PolyC) and […] […] Body weights for all animal were recorded.

[5] = system: immune response to ceDNA; format: in vivo, mice; settings: −0.5 h and 5 h regimen compared to −48 hr, −24 h, −1.5 h and 24 h regimen; 300 mg/kg
Description: FIG. 14 depicts two different dosing time arrangements of TKI treatment. […]. […]

[6] = system: immune response to ceDNA (Construct A: hAAT-Luciferase); test: ceDNA dose escalation study with TKI; format: in vivo; settings: 2 mg/kg ceDNA formulated in LNP; ruxolitinib 300 mg/kg
Method: An in vivo study with dose escalation of ceDNA was conducted to evaluate the effect of ceDNA at a high dose in the presence of the TKI (ruxolitinib at a high dose of 300 mg/kg and fostamatinib at a high dose of 500 mg/kg). In this study, four experimental groups were dosed with increasing doses of 0.2 mg/kg, 0.5 mg/kg, 1 mg/kg, or 2 mg/kg of ceDNA (Construct A: hAAT-Luciferase) formulated in LNPs.

[7] = system: luciferase expression of ceDNA (Construct A); test: In-life imaging (IVIS) of ceDNA luciferase expression; format: in vivo, mice; settings: day 6; compared among TKI groups
Method: Expression levels of ceDNA as detected by luciferase (IVIS for luciferase) was measured at day 6, 14, 21, 28, and 35 in all groups (FIG. 8). Polycytidylic acid potassium salt (PolyC) and […] ceDNA (Construct A) were used as controls. Both polyC and Construct A were formulated in LNP and used as controls for in groups in which no ceDNA was dosed to evaluate the effect of LNPs. Body weights for all animal were recorded.

[8] = 0.2 mg/kg ceDNA, blood 6 hours post dose
[9] = high dose of TKI with Construct A:LNP vehicle

Question: What does the source list for `COc1cc(Nc2ncc(F)c(Nc3ccc4c(n3)N(COP(=O)(O)O)C(=O)C(C)(C)O4)n2)cc(OC)c1OC` [fostamatinib, Fostamatinib/ Fostamatinib disodium]?
Answer: suppressing cytokines and chemokine levels ([1]; 0.2 mg/kg ceDNA): stood out; type I and type II IFNs responses ([1]; 0.2 mg/kg ceDNA): effectively attenuated; serum interferon-α (IFN-α) level [1, 8]: successfully exerted immunosuppressive effects; serum interferon-γ (IFN-γ) level [1, 8]: successfully exerted immunosuppressive effects; serum interleukin-6 (IL-6) level [1, 8]: successfully exerted immunosuppressive effects; serum interleukin-18 (IL-18) level [1, 8]: successfully exerted immunosuppressive effects; serum tumor necrosis factor-α (TNF-α) level [1, 8]: successfully exerted immunosuppressive effects; serum IP-10 level ([1]; 0.2 mg/kg ceDNA): successfully exerted immunosuppressive effects; cytokines expression after ceDNA dosing [1]: drastically reduce; inhibitory effects, ranking among more than 30 compounds tested [2]: most significant inhibitory effects; inhibitory effects on murine ISG system / induction of IRF [2]: significant inhibitory effects

Question: With `c1cn2cc(-c3ccc4cn[nH]c4c3)nc(Nc3ccc(N4CCOCC4)cc3)c2n1` [entoplestinib, Entosplestinib] as the compound, how does the “toxicity in vitro (ATP activity)” value [3] read?
Answer: mostly non-toxic

Question: For `Cl.Cn1cc(-c2nc(N[C@@H]3CCCC[C@@H]3N)c(F)c3c2C(=O)NC3)cn1` [TAK-659], which “toxicity in vitro (ATP activity)” value [3] is on record?
Answer: mostly non-toxic

Question: With `Cc1ccc(NC(=O)c2ccc(CN3CCN(C)CC3)cc2)cc1Nc1nccc(-c2cccnc2)n1` [imatinib, Imatinib/ Imatinib mesylate] as the compound, how does the “toxicity in vitro (ATP activity)” value [3] read?
Answer: mostly non-toxic

Question: Which body loss ([4]; with ceDNA, particularly at a high dose) does the source give for `CN(C)C/C=C/C(=O)Nc1cc2c(Nc3ccc(F)c(Cl)c3)ncnc2cc1O[C@H]1CCOC1` [afatinib, Afatinib/ Afatinib Dimaleate] here?
Answer: 7-8%

Question: Which “toxicity in vitro (ATP activity)” value [3] does the source give for `CNC(=O)c1cc(Oc2ccc(NC(=O)Nc3ccc(Cl)c(C(F)(F)F)c3)cc2)ccn1` [sorafinib, Sorafenib] here?
Answer: mostly non-toxic

Question: With `[2H]C([2H])([2H])NC(=O)c1nnc(NC(=O)C2CC2)cc1Nc1cccc(-c2ncn(C)n2)c1OC` [BMS-986165, BMS986165 Tyk2-IN-4] as the compound, how does the “inhibitory effects, ranking among more than 30 compounds tested” value [2] read?
Answer: most significant inhibitory effects

Question: And the “inhibitory effects on murine ISG system / induction of IRF” value [2]?
Answer: significant inhibitory effects

Question: Which “toxicity in vitro (ATP activity)” value [3] does the source give for `CCN(CC)CCNC(=O)c1c(C)[nH]c(/C=C2\C(=O)Nc3ccc(F)cc32)c1C` [sunitinib, Sunitinib] here?
Answer: mostly non-toxic

Question: With `N#CC[C@H](C1CCCC1)n1cc(-c2ncnc3[nH]ccc23)cn1` [ruxolitinib, Ruxolitinib/ Ruxolitinib phosphate/ S-ruxolitinib] as the compound, how does the body weight change ([4]; TKI with 0.2 mg/kg ceDNA) read?
Answer: a certain level of weight gains

Question: And the “serum MCP-1 level” value ([1]; 0.2 mg/kg ceDNA)?
Answer: significant reduction

Question: What about the “serum MIP-1α (CCL3) level” value ([1]; 0.2 mg/kg ceDNA) of the same compound?
Answer: significant reduction

Question: What about the “serum MIP-1β (CCL4) level” value ([1]; 0.2 mg/kg ceDNA) of the same compound?
Answer: significant reduction

Question: And the “serum Rantes (CCL5) level” value ([1]; 0.2 mg/kg ceDNA)?
Answer: significant reduction

Question: What about the “suppressing cytokines and chemokine levels” value ([1]; 0.2 mg/kg ceDNA) of the same compound?
Answer: stood out

Question: And the “type I and type II IFNs responses” value ([1]; 0.2 mg/kg ceDNA)?
Answer: effectively attenuated

Question: What about the “serum interferon-α (IFN-α) level” value [1, 8] of the same compound?
Answer: significant reductions; also recorded: successfully exerted immunosuppressive effects

Question: What about the “serum interferon-γ (IFN-γ) level” value [1, 8] of the same compound?
Answer: significant reductions; also recorded: successfully exerted immunosuppressive effects

Question: And the “serum interleukin-6 (IL-6) level” value [1, 8]?
Answer: significant reductions; also recorded: successfully exerted immunosuppressive effects

Question: What about the “serum interleukin-18 (IL-18) level” value [1, 8] of the same compound?
Answer: significant reductions; also recorded: successfully exerted immunosuppressive effects

Question: And the serum level [1, 8]?
Answer: significant reductions

Question: And the “serum tumor necrosis factor-α (TNF-α) level” value [1, 8]?
Answer: significant reductions; also recorded: successfully exerted immunosuppressive effects

Question: And the “serum IP-10 level” value ([1]; 0.2 mg/kg ceDNA)?
Answer: successfully exerted immunosuppressive effects

Question: What about the “cytokines expression after ceDNA dosing” value [1] of the same compound?
Answer: drastically reduce

Question: And the “serum IFN-α level” value [1, 9]?
Answer: no detectable

Question: And the “serum IFN-γ level” value [1, 9]?
Answer: no detectable

Question: What about the “serum IL-6 level” value [1, 9] of the same compound?
Answer: no detectable

Question: And the immunosuppression [5]?
Answer: improved immunosuppression

Question: And the “inhibitory effects, ranking among more than 30 compounds tested” value [2]?
Answer: most significant inhibitory effects

Question: What about the “inhibitory effects on murine ISG system / induction of IRF” value [2] of the same compound?
Answer: significant inhibitory effects

Question: What about the tolerability [6] of the same compound?
Answer: well tolerated

Question: And the “ceDNA transgene expression levels” value [7]?
Answer: highest level
